{
  "source": "paper PMC12700101",
  "about": "(2025)",
  "key": {"[1]": {"tested_on": "Dopamine DBS Cy3/BHQ-1 (term.) (DNA, aptamer) AAATACAACAAGAAAAAACTCTCGGGACGACGCCAGTTTGAAGGTTCGTTCGCAGGTGTGGAGTGACGTCGTCCC", "test": "fluorescence melting", "conditions": "1x PBS, 2 mM MgCl2; pH 8.0; 50 µM dopamine; derived from two Tm (51.2, 50.6); displacement strand 1:4"}, "[2]": {"tested_on": "Dopamine DBS Cy3(+T)–BHQ-1 (DNA, aptamer) AAATACAACAAGAAAAAACTCTCGGGACGACGTACCAGTTTGAAGGTTCGTTCGCAGGTGTGGAGTGACGTCGTCCC", "test": "fluorescence strand-displacement titration", "conditions": "1x PBS, 2 mM MgCl2; apparent; pH 8.0, 25 °C; displaced 42-nt 5'-BHQ-1 strand, 4 eq"}, "[3]": {"tested_on": "Dopamine DBS FAM(+T)–BHQ-1 Terminal (DNA, aptamer, 6-FAM-dT (azide click) at 33) AAATACAACAAGAAAAAACTCTCGGGACGACGTACCAGTTTGAAGGTTCGTTCGCAGGTGTGGAGTGACGTCGTCCC", "test": "fluorescence strand-displacement titration", "conditions": "1x PBS, 2 mM MgCl2; apparent; pH 8.0, 25 °C; displaced 43-nt strand, 5'-BHQ-1 plus T, 4 eq"}, "[4]": {"tested_on": "Dopamine DBS BHQ-1–Cy3 (DNA, aptamer) AAATACAACAAGAAAAAACTCTCGGGACGACGACCAGTTTGAAGGTTCGTTCGCAGGTGTGGAGTGACGTCGTCCC", "test": "fluorescence strand-displacement titration", "conditions": "1x PBS, 2 mM MgCl2; apparent; pH 8.0, 25 °C; displaced 42-nt 5'-Cy3 strand, 1 eq"}, "[5]": {"tested_on": "Dopamine DBS Cy3–BHQ-1 (Position 3) (DNA, aptamer) AAATACAACAAGAAAAAACTCTCGGGACGACGACCAGTTTGAAGGTTCGTTCGCAGGTGTGGAGTGACGTCGTCCC", "test": "fluorescence strand-displacement titration", "conditions": "1x PBS, 2 mM MgCl2; apparent; pH 8.0, 25 °C; displaced 42-nt strand, internal BHQ-1 (position 3), 4 eq"}, "[6]": {"tested_on": "Dopamine DBS Cy3(+T)–BHQ-1 Internal (DNA, aptamer) AAATACAACAAGAAAAAACTCTCGGGACGACGTACCAGTTTGAAGGTTCGTTCGCAGGTGTGGAGTGACGTCGTCCC", "test": "fluorescence strand-displacement titration", "conditions": "1x PBS, 2 mM MgCl2; apparent; pH 8.0, 25 °C; displaced 42-nt strand, internal BHQ-1, 4 eq"}, "[7]": {"tested_on": "Dopamine MAB Cy3–Dab (DNA, aptamer, dabcyl-5-methyl-dC at 41 (3' end)) ACGCCAGTTTGAAGGTTCGTTCGCAGGTGTGGAGTGACGTC", "test": "fluorescence melting", "conditions": "1x PBS, 2 mM MgCl2; derived from two Tm (43.3 ± 1.0, 53.6 ± 0.3); 50 µM dopamine, pH 8.0"}, "[8]": {"tested_on": "Dopamine DBS FAM(+T)–BHQ-1 Internal (DNA, aptamer, 6-FAM-dT (azide click) at 33) AAATACAACAAGAAAAAACTCTCGGGACGACGTACCAGTTTGAAGGTTCGTTCGCAGGTGTGGAGTGACGTCGTCCC", "test": "fluorescence strand-displacement titration", "conditions": "1x PBS, 2 mM MgCl2; apparent; pH 8.0, 25 °C; displaced 42-nt strand, internal BHQ-1, 4 eq"}, "[9]": {"tested_on": "Dopamine MAB Cy3–BHQ-1 (DNA, aptamer) ACGCCAGTTTGAAGGTTCGTTCGCAGGTGTGGAGTGACGT", "test": "fluorescence melting", "conditions": "1x PBS, 2 mM MgCl2; derived from two Tm (49.5 ± 0.3, 52.7 ± 0.8); 50 µM dopamine, pH 8.0"}, "[10]": {"tested_on": "Dopamine MAB Cy3–BHQ-2 (DNA, aptamer) ACGCCAGTTTGAAGGTTCGTTCGCAGGTGTGGAGTGACGT", "test": "fluorescence quenching titration (molecular aptamer beacon)", "conditions": "1x PBS, 2 mM MgCl2; apparent; pH 8.0, 25 °C"}, "[11]": {"tested_on": "Dopamine MAB FAM–Dab (DNA, aptamer, dabcyl-5-methyl-dC at 41 (3' end)) ACGCCAGTTTGAAGGTTCGTTCGCAGGTGTGGAGTGACGTC", "test": "fluorescence quenching titration (molecular aptamer beacon)", "conditions": "1x PBS, 2 mM MgCl2; apparent; pH 8.0, 25 °C"}, "[12]": {"tested_on": "Dopamine DBS FAM(+T)/BHQ-1 (int.) (DNA, aptamer, 6-FAM-modified dT (click, i6-FAMK) at 33) AAATACAACAAGAAAAAACTCTCGGGACGACGTCCAGTTTGAAGGTTCGTTCGCAGGTGTGGAGTGACGTCGTCCC", "test": "fluorescence melting", "conditions": "1x PBS, 2 mM MgCl2; pH 8.0; 50 µM dopamine; derived from two Tm (49.1, 49.3); displacement strand 1:4"}, "[13]": {"tested_on": "Dopamine DBS Cy3–BHQ-1 (Position 2) (DNA, aptamer) AAATACAACAAGAAAAAACTCTCGGGACGACGACCAGTTTGAAGGTTCGTTCGCAGGTGTGGAGTGACGTCGTCCC", "test": "fluorescence strand-displacement titration", "conditions": "1x PBS, 2 mM MgCl2; apparent; pH 8.0, 25 °C; displaced 42-nt strand, internal BHQ-1 (position 2), 4 eq"}, "[14]": {"tested_on": "Dopamine DBS Cy3/Cy5 – No (position 3) (DNA, aptamer) AAATACAACAAGAAAAAACTCTCGGGACGACGACCAGTTTGAAGGTTCGTTCGCAGGTGTGGAGTGACGTCGTCCC", "test": "fluorescence strand-displacement titration", "conditions": "1x PBS, 2 mM MgCl2; apparent; pH 8.0, 25 °C; displaced 42-nt 3'-biotin strand without quencher; 565 nm readout"}, "[15]": {"tested_on": "Dopamine DBS Cy3–BHQ-1 (Term.) (DNA, aptamer) AAATACAACAAGAAAAAACTCTCGGGACGACGACCAGTTTGAAGGTTCGTTCGCAGGTGTGGAGTGACGTCGTCCC", "test": "fluorescence strand-displacement titration", "conditions": "1x PBS, 2 mM MgCl2; apparent; pH 8.0, 25 °C; displaced 43-nt strand, 5'-BHQ-1 plus T, 4 eq"}},
  "data": [
    {"smiles": "NCCc1ccc(O)c(O)c1", "values": [
      {"measurement": "Tm", "setting": "[1]", "result": -0.6, "unit": "°C"},
      {"measurement": "Kd", "setting": "[2]", "result": "76.7 ± 5.5", "unit": "µM"},
      {"measurement": "Kd", "setting": "[3]", "result": "10.2 ± 1.0", "unit": "µM"},
      {"measurement": "Kd", "setting": "[4]", "result": "95.6 ± 6.7", "unit": "µM"},
      {"measurement": "Kd", "setting": "[5]", "result": "2.3 ± 0.3", "unit": "µM"},
      {"measurement": "Kd", "setting": "[6]", "result": "17.3 ± 1.3", "unit": "µM"},
      {"measurement": "Tm", "setting": "[7]", "result": 10.3, "unit": "°C"},
      {"measurement": "Kd", "setting": "[8]", "result": "7.5 ± 0.9", "unit": "µM"},
      {"measurement": "Tm", "setting": "[9]", "result": 3.2, "unit": "°C"},
      {"measurement": "Kd", "setting": "[10]", "result": "12.4 ± 2.0", "unit": "µM"},
      {"measurement": "Kd", "setting": "[11]", "result": "3.2 ± 0.2", "unit": "µM"},
      {"measurement": "Tm", "setting": "[12]", "result": 0.2, "unit": "°C"},
      {"measurement": "Kd", "setting": "[13]", "result": "2.2 ± 0.7", "unit": "µM"},
      {"measurement": "Kd", "setting": "[14]", "result": "9.9 ± 3.6", "unit": "µM"},
      {"measurement": "Kd", "setting": "[15]", "result": "142.9 ± 11.7", "unit": "µM"}
    ]}
  ]
}
